# Laboratory results as given in ChEMBL document CHEMBL1208705, “4-(3-Trifluoromethylphenyl)-pyrimidine-2-carbonitrile as cathepsin S inhibitors: N3, not N1 is critically important” (Bioorg Med Chem Lett, 2010).
# Test: Chemical stability of the compound assessed as half life at 1.25 mM in presence of glutathione by NMR analysis
# Type: physicochemical
# Settings: gsh
row,SMILES,half-life at 1250 µM
1,CN1CCN(CCCOc2ccc(-c3ccnc(C#N)c3)cc2C(F)(F)F)CC1,120 h
2,CN1CCN(CCCOc2ccc(-c3cccc(C#N)n3)cc2C(F)(F)F)CC1,150 h
